Three molecules from ChEMBL document CHEMBL5653631, “A Potent and Selective ULK1 Inhibitor Suppresses Autophagy and Sensitizes Cancer Cells to Nutrient Stress” (iScience, 2018) can be followed below.

The target in assay [1] is Epithelial discoidin domain-containing receptor 1 (Homo sapiens) (UniProt Q08345). As to the kind of experiment: Inhibition of human recombinant DDR1 at 15 nM related to control ULK1.
Assay [2] addresses T1, Testis-specific serine/threonine-protein kinase 4 (Homo sapiens) (UniProt Q6SA08).
T1 sequence (whole entry): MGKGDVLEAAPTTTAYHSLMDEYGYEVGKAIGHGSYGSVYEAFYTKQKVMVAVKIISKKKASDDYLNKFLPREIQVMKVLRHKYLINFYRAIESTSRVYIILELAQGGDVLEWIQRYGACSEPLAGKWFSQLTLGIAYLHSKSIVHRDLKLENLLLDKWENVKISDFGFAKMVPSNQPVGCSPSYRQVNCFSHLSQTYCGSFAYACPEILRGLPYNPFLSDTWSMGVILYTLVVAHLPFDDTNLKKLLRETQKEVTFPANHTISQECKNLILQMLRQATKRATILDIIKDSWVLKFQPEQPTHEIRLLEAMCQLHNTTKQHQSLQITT
As to the kind of experiment: Inhibition of human recombinant TSSK4 at 15 nM related to control ULK1.

Assay [3] has as its target Dual specificity protein kinase CLK2 (Homo sapiens) (UniProt P49760). As to the kind of experiment: Inhibition of human recombinant CLK2 at 15 nM in presence of ATP by radiometric assay relative to control.
The target of assay [4] is NT-3 growth factor receptor (Homo sapiens) (UniProt Q16288). As to the kind of experiment: Inhibition of human recombinant TRKC at 40 nM in presence of ATP by radiometric assay relative to control.
Chain of NT-3 growth factor receptor (Homo sapiens) (Q16288 32-839 limits assumed): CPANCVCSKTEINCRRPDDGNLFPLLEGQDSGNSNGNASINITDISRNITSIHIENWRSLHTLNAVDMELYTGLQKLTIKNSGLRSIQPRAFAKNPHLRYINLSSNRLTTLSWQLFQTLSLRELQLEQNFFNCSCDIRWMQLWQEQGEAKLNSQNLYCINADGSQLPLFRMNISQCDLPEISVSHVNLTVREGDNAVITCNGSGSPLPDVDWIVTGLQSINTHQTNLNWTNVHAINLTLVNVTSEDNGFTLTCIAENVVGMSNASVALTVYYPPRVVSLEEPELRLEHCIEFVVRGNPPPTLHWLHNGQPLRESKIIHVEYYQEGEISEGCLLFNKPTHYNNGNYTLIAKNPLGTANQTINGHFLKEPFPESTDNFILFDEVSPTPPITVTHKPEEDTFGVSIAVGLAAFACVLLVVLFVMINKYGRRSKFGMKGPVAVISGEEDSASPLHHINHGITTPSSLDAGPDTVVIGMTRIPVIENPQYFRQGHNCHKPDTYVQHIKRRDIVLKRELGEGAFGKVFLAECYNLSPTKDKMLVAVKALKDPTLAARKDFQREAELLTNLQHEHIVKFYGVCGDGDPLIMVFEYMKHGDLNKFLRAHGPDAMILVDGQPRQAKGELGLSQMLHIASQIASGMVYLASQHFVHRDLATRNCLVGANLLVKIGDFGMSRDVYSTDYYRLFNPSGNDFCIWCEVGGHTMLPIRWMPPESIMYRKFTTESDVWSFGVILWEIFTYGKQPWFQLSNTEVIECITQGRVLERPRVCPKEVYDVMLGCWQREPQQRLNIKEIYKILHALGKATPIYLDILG
Assay [5] has as its target Protein kinase C iota type (Homo sapiens) (UniProt P41743). As to the kind of experiment: Inhibition of human recombinant PKCi at 40 nM related to control ULK1.
For assay [6], the target named is T2, Myotonin-protein kinase (Homo sapiens) (UniProt Q09013).
T2 sequence (whole entry): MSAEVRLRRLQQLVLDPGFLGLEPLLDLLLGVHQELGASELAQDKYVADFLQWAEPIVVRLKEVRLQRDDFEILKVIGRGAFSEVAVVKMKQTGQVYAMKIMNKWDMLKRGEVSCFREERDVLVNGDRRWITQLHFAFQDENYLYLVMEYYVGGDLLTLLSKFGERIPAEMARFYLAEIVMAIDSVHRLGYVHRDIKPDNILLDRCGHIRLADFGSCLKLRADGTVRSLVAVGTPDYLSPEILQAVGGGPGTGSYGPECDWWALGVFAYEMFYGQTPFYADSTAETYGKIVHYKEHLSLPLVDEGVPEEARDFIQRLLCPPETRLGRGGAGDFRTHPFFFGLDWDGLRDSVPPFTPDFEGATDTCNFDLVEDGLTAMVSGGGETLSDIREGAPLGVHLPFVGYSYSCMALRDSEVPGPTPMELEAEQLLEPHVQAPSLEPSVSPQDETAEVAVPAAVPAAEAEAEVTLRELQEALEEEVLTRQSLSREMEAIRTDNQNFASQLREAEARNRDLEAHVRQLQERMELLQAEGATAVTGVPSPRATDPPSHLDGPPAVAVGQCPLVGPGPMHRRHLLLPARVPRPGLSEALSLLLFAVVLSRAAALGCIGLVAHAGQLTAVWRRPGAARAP
As to the kind of experiment: Inhibition of human recombinant DMPK1 at 40 nM in presence of ATP by radiometric assay relative to control.

In assay [7] the target is T3, Serine/threonine-protein kinase Sgk3 (Homo sapiens) (UniProt Q96BR1).
T3 sequence (whole entry): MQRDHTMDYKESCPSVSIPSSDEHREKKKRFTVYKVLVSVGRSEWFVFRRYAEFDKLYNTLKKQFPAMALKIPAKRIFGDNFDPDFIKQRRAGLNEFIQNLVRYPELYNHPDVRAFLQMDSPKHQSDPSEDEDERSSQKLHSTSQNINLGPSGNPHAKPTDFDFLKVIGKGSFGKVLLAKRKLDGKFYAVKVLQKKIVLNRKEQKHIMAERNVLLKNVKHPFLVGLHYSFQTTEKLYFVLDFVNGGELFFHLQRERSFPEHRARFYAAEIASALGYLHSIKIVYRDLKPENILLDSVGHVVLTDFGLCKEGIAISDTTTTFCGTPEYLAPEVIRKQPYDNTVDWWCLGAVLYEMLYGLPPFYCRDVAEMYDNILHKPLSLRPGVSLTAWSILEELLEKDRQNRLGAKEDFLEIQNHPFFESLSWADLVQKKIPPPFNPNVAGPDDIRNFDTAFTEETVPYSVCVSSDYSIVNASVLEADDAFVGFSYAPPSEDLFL
As to the kind of experiment: Inhibition of human recombinant SGK3 at 40 nM related to control ULK1.

Assay [8] addresses Tyrosine-protein kinase HCK (Homo sapiens) (UniProt P08631). As to the kind of experiment: Inhibition of human recombinant HCK at 40 nM related to control ULK1.
Assay [9] deals with Calcium/calmodulin-dependent protein kinase type 1G (Homo sapiens) (UniProt Q96NX5). As to the kind of experiment: Inhibition of human recombinant CaMK1g at 40 nM related to control ULK1.
Assay [10] deals with Vascular endothelial growth factor receptor 3 (Homo sapiens) (UniProt P35916). As to the kind of experiment: Inhibition of human recombinant FLT4 at 500 nM in presence of ATP by radiometric assay relative to control.
Chain of Vascular endothelial growth factor receptor 3 (Homo sapiens) (P35916 whole entry): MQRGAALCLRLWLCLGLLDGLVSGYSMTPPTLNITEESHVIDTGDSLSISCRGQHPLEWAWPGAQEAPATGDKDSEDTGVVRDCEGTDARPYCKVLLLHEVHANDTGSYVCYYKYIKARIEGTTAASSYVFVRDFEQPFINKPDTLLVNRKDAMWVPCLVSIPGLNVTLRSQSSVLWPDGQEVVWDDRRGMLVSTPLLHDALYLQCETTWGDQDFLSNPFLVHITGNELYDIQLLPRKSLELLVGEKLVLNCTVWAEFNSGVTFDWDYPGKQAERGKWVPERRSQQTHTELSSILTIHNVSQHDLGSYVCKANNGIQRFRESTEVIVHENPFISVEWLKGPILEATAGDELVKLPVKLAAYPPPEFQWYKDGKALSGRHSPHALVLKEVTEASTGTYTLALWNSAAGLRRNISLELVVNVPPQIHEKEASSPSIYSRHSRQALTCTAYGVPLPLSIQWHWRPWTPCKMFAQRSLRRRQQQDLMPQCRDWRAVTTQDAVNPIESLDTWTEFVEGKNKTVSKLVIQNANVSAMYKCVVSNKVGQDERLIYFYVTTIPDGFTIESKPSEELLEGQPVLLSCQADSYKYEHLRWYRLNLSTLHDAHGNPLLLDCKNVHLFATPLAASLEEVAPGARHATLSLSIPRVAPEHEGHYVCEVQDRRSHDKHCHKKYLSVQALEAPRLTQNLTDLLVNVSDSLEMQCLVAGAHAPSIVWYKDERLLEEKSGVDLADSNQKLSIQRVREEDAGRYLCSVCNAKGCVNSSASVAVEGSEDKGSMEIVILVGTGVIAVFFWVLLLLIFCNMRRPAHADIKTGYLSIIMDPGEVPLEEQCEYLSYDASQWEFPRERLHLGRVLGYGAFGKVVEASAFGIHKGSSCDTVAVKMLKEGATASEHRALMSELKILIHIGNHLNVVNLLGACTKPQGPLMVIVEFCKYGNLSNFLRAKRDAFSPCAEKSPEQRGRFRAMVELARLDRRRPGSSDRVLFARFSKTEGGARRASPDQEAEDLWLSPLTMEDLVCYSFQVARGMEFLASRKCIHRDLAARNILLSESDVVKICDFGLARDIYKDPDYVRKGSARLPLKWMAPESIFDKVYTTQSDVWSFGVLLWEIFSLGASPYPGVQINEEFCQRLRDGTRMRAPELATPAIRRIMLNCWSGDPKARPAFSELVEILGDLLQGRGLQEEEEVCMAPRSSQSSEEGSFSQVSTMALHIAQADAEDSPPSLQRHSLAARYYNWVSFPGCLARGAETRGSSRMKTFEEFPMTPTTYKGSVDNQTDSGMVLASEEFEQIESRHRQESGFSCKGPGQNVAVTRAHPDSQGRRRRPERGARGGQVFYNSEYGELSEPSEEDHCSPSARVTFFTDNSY
For assay [11], the target named is Leucine-rich repeat serine/threonine-protein kinase 2 (Homo sapiens) (UniProt Q5S007). As to the kind of experiment: Inhibition of human recombinant LRRK2 at 500 nM in presence of ATP by radiometric assay relative to control.
Assay [12] has as its target Cyclin-dependent kinase 3 (Homo sapiens) (UniProt Q00526). As to the kind of experiment: Inhibition of human recombinant CDK3 at 500 nM related to control ULK1.
The target in assay [13] is T4, Dual specificity tyrosine-phosphorylation-regulated kinase 2 (Homo sapiens) (UniProt Q92630).
T4 sequence (whole entry): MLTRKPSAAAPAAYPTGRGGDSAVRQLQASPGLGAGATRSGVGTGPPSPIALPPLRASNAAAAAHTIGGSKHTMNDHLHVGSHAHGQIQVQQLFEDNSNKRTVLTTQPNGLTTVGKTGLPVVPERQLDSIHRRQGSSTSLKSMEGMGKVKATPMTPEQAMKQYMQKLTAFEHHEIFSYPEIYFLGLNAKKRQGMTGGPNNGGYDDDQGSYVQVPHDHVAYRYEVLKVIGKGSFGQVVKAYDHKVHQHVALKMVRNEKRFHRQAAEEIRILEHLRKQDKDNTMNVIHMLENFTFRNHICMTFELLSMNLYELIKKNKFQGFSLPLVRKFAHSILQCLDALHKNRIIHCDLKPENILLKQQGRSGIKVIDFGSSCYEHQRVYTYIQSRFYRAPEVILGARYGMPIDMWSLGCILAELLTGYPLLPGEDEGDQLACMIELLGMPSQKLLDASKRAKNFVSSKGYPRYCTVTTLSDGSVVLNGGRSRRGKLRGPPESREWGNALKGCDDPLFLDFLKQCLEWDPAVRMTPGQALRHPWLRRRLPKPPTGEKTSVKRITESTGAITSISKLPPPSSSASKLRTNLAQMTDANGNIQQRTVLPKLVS
As to the kind of experiment: Inhibition of human recombinant DYRK2 at 500 nM in presence of ATP by radiometric assay relative to control.

Assay [14] deals with Tyrosine-protein kinase HCK (Homo sapiens) (UniProt P08631). As to the kind of experiment: Inhibition of human recombinant HCK at 500 nM related to control ULK1.
Chain of Tyrosine-protein kinase HCK (Homo sapiens) (P08631 2-526 limits assumed): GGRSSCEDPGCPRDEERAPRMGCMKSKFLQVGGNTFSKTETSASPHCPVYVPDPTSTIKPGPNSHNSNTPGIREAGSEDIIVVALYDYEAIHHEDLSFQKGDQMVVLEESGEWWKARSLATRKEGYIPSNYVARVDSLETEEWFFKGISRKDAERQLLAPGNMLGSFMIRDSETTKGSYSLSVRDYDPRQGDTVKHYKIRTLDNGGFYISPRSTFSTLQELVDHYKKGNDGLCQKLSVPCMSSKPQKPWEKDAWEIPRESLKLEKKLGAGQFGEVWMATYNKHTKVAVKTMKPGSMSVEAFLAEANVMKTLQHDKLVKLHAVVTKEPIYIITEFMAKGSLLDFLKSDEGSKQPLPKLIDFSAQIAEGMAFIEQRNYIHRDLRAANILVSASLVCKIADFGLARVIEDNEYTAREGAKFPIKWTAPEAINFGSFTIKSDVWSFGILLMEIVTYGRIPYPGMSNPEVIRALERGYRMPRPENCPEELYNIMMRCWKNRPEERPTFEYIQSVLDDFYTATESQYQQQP

Chain of Epithelial discoidin domain-containing receptor 1 (Homo sapiens) (Q08345 whole entry, the tested form may be a part): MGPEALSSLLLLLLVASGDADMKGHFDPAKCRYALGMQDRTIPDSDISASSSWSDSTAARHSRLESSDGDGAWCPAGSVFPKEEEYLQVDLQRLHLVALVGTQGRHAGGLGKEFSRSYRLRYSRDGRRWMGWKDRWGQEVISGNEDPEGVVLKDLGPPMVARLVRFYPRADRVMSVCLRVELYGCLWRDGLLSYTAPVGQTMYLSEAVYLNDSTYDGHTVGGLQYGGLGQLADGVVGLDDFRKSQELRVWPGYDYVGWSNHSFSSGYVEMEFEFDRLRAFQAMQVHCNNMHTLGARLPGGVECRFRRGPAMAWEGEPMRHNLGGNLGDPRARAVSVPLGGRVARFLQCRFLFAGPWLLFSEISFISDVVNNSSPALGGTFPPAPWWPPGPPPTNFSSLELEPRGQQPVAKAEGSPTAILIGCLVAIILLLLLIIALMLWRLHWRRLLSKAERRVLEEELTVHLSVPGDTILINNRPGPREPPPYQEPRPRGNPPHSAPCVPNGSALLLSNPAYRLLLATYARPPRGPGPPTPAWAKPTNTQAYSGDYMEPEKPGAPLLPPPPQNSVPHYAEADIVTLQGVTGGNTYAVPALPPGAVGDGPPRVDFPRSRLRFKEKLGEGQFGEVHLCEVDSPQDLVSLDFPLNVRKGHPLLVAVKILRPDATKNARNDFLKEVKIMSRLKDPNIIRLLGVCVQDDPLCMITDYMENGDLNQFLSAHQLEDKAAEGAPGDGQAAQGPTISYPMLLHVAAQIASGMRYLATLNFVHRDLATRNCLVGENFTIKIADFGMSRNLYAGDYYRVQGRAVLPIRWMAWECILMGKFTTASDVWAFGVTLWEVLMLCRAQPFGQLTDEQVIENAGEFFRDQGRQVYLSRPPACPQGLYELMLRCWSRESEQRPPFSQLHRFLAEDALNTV
Chain of Protein kinase C iota type (Homo sapiens) (P41743 whole entry, looked up): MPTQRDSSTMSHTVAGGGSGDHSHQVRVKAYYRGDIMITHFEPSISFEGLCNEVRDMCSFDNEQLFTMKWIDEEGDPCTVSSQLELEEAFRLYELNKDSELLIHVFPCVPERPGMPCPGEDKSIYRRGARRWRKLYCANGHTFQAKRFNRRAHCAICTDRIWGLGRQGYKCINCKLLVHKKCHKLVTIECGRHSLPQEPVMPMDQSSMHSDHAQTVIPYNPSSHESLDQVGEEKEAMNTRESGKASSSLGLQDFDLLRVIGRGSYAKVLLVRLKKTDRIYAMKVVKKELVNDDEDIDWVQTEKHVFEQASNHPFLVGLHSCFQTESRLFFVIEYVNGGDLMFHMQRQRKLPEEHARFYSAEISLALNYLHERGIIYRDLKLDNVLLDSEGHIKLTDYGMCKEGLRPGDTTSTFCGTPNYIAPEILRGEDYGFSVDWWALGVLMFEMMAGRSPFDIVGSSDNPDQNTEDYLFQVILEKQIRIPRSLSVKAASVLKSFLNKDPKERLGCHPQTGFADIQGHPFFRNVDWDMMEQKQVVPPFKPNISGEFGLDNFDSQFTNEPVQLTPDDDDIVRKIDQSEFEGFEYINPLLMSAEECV
Chain of Dual specificity protein kinase CLK2 (Homo sapiens) (P49760 whole entry, looked up): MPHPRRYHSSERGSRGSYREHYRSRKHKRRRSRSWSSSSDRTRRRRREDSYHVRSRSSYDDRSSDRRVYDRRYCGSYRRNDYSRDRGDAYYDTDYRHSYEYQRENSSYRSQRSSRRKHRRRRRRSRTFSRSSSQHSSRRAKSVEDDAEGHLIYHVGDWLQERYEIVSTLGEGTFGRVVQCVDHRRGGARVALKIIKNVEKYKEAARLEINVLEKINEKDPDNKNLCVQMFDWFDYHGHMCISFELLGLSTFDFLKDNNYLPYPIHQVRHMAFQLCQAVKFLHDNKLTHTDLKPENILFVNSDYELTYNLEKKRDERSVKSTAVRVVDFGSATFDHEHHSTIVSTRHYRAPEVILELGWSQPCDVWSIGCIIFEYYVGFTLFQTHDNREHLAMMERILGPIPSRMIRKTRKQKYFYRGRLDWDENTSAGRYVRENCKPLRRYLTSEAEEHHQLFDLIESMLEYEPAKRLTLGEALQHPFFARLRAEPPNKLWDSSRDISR
Chain of Cyclin-dependent kinase 3 (Homo sapiens) (Q00526 whole entry, looked up): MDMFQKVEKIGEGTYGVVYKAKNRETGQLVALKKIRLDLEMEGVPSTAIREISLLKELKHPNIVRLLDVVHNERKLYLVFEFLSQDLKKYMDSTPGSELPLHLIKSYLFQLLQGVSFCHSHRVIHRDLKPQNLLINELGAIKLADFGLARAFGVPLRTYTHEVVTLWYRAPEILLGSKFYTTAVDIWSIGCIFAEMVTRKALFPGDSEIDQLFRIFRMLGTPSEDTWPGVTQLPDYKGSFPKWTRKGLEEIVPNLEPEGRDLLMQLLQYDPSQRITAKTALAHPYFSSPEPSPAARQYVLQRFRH

Consider `CC(C)[C@H](NC(=O)c1cc(-c2cnn3cc(-c4ccc(OCCN5CCCCC5)cc4)cnc23)cs1)C(F)(F)F`, for which the fold change (FC) in [1] came out at 0.89; in assay [2], 0. The inhibition in [3] amounted to 29%.

In the case of `O=C(N[C@@H](C1CC1)C(F)(F)F)c1cc(-c2cnn3cc(-c4ccc(F)cc4)cnc23)cs1`, the inhibition was 0% in assay [4] and 5% in assay [6]. Besides, the fold change (FC) in assay [5], in [7], in assay [8] and in assay [9] was 0 throughout.

For the molecule `CNC(=O)c1ccccc1Oc1nc(Nc2cc(OC)c(OC)c(OC)c2)ncc1Br`, the inhibition in assay [10] came out at 23%; in assay [11], 35%; in [13] it was 0%. Further, the fold change (FC) came to 0.01 in [12] and 0.23 in assay [14].

The term inhibition denotes how much of the control response was suppressed.
